Experiments:
Assay type in all cases: cell-based, human
[1] = test system: differentiating hES cells (EB day 8); test: Lumen diameters of tubulocystic structures lined by cytokeratin-positive epithelium in hES cell-scaffold constructs; conditions: scaffold constructs grown two weeks, IGF-I 10 ng/mL, mean ±SD; for percentage of lumens >40 μm of total number of lumens (tubulocystic structures): RA 300 ng/ml, control 65%±4
Procedure: (§1) For seeding in matrigel, 8-9 days-old EBs were trypsinized, and 0.8×10^6 cells were mixed in 25 μL of a 50% (vol/vol) media and matrigel (growth factor-reduced, BD Biosciences, Bedford, Mass.). EB media was supplemented with the following growth factors: TGF-β1 (2 ng/mL), activin-A (20 ng/mL), and IGF-I (10 ng/mL), (R&D Systems, Minneapolis, Minn.), and RA (300 ng/ml) (Sigma). The mixture was solidified in a 6-well Petri dish at 37° C. and then detached from the dish with sterile blades. 4 mL of each respective EB media was added. For seeding on scaffolds, 0.8×10^6 cells were seeded into each scaffold using 25 μL of a mixture containing 50% (vol/vol) of Growth Factor-Reduced Matrigel and the respective EB media. After seeding the cells, scaffolds were suspended in 6-well petri dishes in their respective media. For some experiments, scaffolds were soaked in 50 μg/mL of fibronectin (Sigma) for 1 hour and washed in PBS prior to direct cell seeding (without matrigel) in 25 μL of EB media.
(§2) Tissue constructs were fixed for 6 hours in 10% neutral buffered formalin, routinely processed, and embedded in paraffin. 5-μm thick transverse sections were placed on silanized slides for immunohistochemistry or staining with hematoxylin and eosin (H & E), trichrome, or Safranin O. Immunohistochemical staining was carried out using the Biocare Medical Universal HRP-DAB kit (Biocare Medical, Walnut Creek, Calif.) according to the manufacturer's instructions, with prior heat-treatment at 90° C. for 20 minutes in ReVeal buffer (Biocare Medical) for epitope recovery. […]
Constructs grown for two weeks in control medium or in the presence of IGF or RA were processed and stained with anti-cytokeratin antibody as described above. Tubulocystic structures were counted and lumen diameters measured and grouped (large>200 μm, medium (Med)>40 μm, small<[…], closed and multilayered lumens). The results, the mean values (±SD) of samples obtained in two different experiments performed in duplicate, were recorded as percentages of lumens in each group from total number of lumens in each sample.

[2] = test system: differentiating hES cells (EB day 8); test: Histochemical and immunohistochemical staining of hES cell constructs on PLLA/PLGA scaffolds; conditions: scaffold constructs, two weeks; for alpha feto protein (AFP) and albumin staining: in comparison to the control
Procedure: as §1
(§3) Tissue constructs were fixed for 6 hours in 10% neutral buffered formalin, routinely processed, and embedded in paraffin. 5-μm thick transverse sections were placed on silanized slides for immunohistochemistry or staining with hematoxylin and eosin (H & E), trichrome, or Safranin O. Immunohistochemical staining was carried out using the Biocare Medical Universal HRP-DAB kit (Biocare Medical, Walnut Creek, Calif.) according to the manufacturer's instructions, with prior heat-treatment at 90° C. for 20 minutes in ReVeal buffer (Biocare Medical) for epitope recovery. The primary antibodies were mouse anti-human: desmin (1:150), alpha feto protein (1:2500), cytokeratin 7 (1:25), CD31 (1:20), albumin (1:100), vimentin (1:50), S100 (1:100) (all from Dako), anti-human βIII-tubulin (Sigma, 1:500), nestin (Transduction Laboratories, San Diego, Calif., 1:1000), CD34 (Labvision, Fremont, Calif., 1:20), SSEA4 (Hybridoma Bank, University of Iowa, Ames, 1:4), and Tra 1-60 (a gift from Peter Andrews, University of Sheffield, Sheffield, U.K., 1:10). Human and mouse tissues (Daks) were used as controls to ensure antibody specificity (FIG. 1). For proliferation studies, culture medium was incubated with […] of 5′-bromo-2′-deoxyuridine (BrdUrd) (Sigma) for 3 hours before fixation. Tissue sections were stained using mouse anti-BrdUrd antibodies (1:1000).

[3] = test system: differentiating hES cells (EBs day 8); test: Differentiation of hES cells in matrigel alone; conditions: for shape of cell-matrigel structure: two weeks in suspension
Procedure: as §1, §3

hEBs (day 8) = test: Staining of hEBs incubated with growth factors; conditions: EBs conditioned with growth factor
Procedure: FIG. 4 includes light micrographs of 5-μm-thick sections taken from hEBs (day 8), incubated for additional 2 weeks with control medium (CON) or medium supplemented with retinoic acid (RA), or insulin-like growth factor (IGF), and stained with antibodies against human cytokeratin, α-feto-protein, and nestin (scale bars=200 μm.)
hES cells (H9 clone) were grown on mouse embryonic fibroblasts (Cell Essential, Boston, Mass.) in KnockOut Medium (Gibco-BRL, Gaithersburg, Md.), a modified version of Dulbeco's modified Eagle's medium optimized for ES cells, as described^5. To induce formation of EBs, hES cell colonies were dissociated with 1 mg/ml collagenase type IV and suspended in differentiation media without LIF and bFGF in Petri dishes^5.
as §2

[4] = test system: differentiating hES cells (EB day 8); test: RT-PCR gene expression analysis of hES cell constructs on PLLA/PLGA scaffolds; conditions: scaffold constructs, two weeks
Procedure: as §1
Total RNA was isolated by an RNEasy Mini Kit (Qiagen, Chatsworth, Calif.). […] For some gels including RNA amplified using a GADPH primer, semi-quantitative analysis was performed by measuring the mean pixel intensities of each band and normalizing the measured intensity to the mean pixel intensity of the GADPH band.

Compound | percentage of lumens >40 μm of total number of lumens (tubulocystic structures) [1] | increase in total percentage of cytokeratin-positive areas within the tissue ([2]; versus control medium, P<0.01) [fold] | Safranin-O staining of cartilage-derived GAG ([3]; two weeks) | epithelial-lined tubular or cystic structures (histology) ([3]; two weeks) | safranin-O staining (hEBs (day 8)) | cartilage matrix protein (CMP) expression ([4]; compared to the other samples) | Safranin-O staining for glycosaminoglycans (cartilage extracellular matrix) [2] | collagen formation (trichrome staining) [2] | AFP expression/staining ([3]; two weeks) | cellular viability ([3]; two weeks) | shape of cell-matrigel structure [3] | expression of pancreatic gene PDX-1 ([4]; versus other growth factors) | alpha feto protein (AFP) and albumin staining [2] | percentage of lumens >200 μm of total number of lumens (tubulocystic structures) [1]
CC1=C(/C=C/C(C)=C/C=C/C(C)=C/C(=O)O)C(C)(C)CCC1 [RA, retinoic acid, reference compound] | 25%±12 | ~4 |  |  |  |  |  |  |  |  |  |  |  | 
TGF-β: transforming growth factor beta, TGF-β1, 2 ng/mL (R&D Systems) |  |  | No Safanin-O staining | did not contain any such structures | no safranin-O staining was observed | higher levels | high levels of Safranin-O staining | induced mature collagen formation |  |  |  |  |  | 
activin-A |  |  |  | did not contain any such structures |  |  | did not induce formation of Safranin O-positive matrix |  | No AFP expression was observed | least cellular viability | small, condensed spheres | higher levels | high levels of alpha feto protein (AFP) and albumin throughout the sample | 
IGF: insulin growth factor IGF-I, 10 ng/mL (R&D Systems) | 84%±6 |  |  | occasional epithelial-lined tubular or cystic structures |  |  | did not induce formation of Safranin O-positive matrix |  | some AFP staining could be observed |  | larger and less condensed |  | high levels of AFP and albumin in more defined areas | 10%±3

Reference: US20050031598A1, “Engineering three-dimensional tissue structures using differentiating embryonic stem cells” (priority 2002, published 2005)
